From US7476673B2, “Disubstituted chalcone oximes as selective agonists of RARγ retinoid receptors” (Allergan, Inc., priority 2003, dated 2009)

What was measured:
RARγ [1] = assay: chimeric receptor transactivation assay, RARγ; format: cell-based; details: judged from Table 1 data, versus RARα and RARβ
Procedure: (§1) The compounds of the invention were tested in certain assays for activity as agonists of RAR and RXR retinoid receptors. Specifically, one such assay is a chimeric receptor transactivation assay which tests for agonist-like activity in the RARα, RARβ and RARγ receptor subtypes, and which is based on work published by Feigner P. L. and Holm M. (1989) Focus, 112 is described in detail in U.S. Pat. No. 5,455,265. The specification of U.S. Pat. No. 5,455,265 is hereby expressly incorporated by reference.
(§2) A holoreceptor transactivation assay and a ligand binding assay which measure the antagonist/agonist like activity of the compounds of the invention, or their ability to bind to the several retinoid receptor subtypes, respectively, are described in published PCT Application No. WO WO93/11755 (particularly on pages 30-33 and 37-41) published on Jun. 24, 1993, the specification of which is also incorporated herein by reference. A detailed experimental procedure for holoreceptor transactivations has been described by Heyman et al. Cell 68, 397-406, (1992); Allegretto et al. J. Biol. Chem. 268, 26625-26633, and Mangelsdorf et al. The Retinoids: Biology, Chemistry and Medicine, pp 319-349, Raven Press Ltd., New York, which are expressly incorporated herein by reference. The results obtained in this assay are expressed in EC50 numbers, as they are also in the chimeric receptor transactivation assay. The results of the ligand binding assay are expressed in Ki numbers. (See Cheng et al. Biochemical Pharmacology Vol. 22 pp 3099-3108, expressly incorporated herein by reference.)
(§3) Efficacy in a transactivation assay is expressed as a percentage of the maximum potency attained by the compound compared to a standard which, in this case, is the compound 4-[(1E)-2-(5,6,7,8-tetrahydro-5,5,8,8-tetramethyl-2-naphthalenyl)-1-propenyl]-benzoic acid. (TTNPB) This standard compound is described in PCT Publication WO 2002077169 A2.
(§4) Table 1 discloses the activity of certain exemplary compounds of the invention in the above-described chimeric RAR receptor transactivation and binding assays.

RARβ [2] = target: T1, RARβ (Homo sapiens, UniProt P10826); assay: chimeric receptor transactivation assay, RARβ; format: cell-based; details: for EC50: chimeric receptor transactivation, read-out: RAR EC50 β; for % Efficiency β: percentage of maximum compared to standard TTNPB
T1 sequence (P10826 183-455 limits assumed): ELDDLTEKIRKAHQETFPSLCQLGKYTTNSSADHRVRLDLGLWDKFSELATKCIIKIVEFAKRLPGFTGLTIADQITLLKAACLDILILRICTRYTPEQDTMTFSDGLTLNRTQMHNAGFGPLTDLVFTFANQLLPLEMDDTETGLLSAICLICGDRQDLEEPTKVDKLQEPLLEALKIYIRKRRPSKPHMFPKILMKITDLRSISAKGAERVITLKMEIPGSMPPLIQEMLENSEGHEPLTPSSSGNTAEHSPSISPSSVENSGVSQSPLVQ
Procedure: as §1, §2, §3, §4

RARα [3] = target: T2, RARα (Homo sapiens, UniProt P10276); assay: ligand binding assay, RARα; details: results expressed in Ki numbers, read-out: RAR Binding α
T2 sequence (P10276 1-462): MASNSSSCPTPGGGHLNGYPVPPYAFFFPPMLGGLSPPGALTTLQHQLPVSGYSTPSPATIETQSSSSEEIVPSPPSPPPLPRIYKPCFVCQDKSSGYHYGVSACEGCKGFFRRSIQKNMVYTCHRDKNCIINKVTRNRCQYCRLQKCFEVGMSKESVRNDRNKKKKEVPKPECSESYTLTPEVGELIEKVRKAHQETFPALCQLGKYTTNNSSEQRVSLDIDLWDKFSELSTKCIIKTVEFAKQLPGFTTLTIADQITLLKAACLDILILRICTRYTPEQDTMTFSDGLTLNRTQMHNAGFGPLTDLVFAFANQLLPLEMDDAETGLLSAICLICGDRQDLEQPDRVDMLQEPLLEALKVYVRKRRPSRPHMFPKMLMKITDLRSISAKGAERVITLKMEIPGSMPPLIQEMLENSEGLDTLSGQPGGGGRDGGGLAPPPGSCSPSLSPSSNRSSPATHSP
Text: as §2, §4

RARβ [4] = target: T3, RARβ (Homo sapiens, UniProt P10826); assay: ligand binding assay, RARβ; details: results expressed in Ki numbers, read-out: RAR Binding β
T3 sequence (P10826 1-455): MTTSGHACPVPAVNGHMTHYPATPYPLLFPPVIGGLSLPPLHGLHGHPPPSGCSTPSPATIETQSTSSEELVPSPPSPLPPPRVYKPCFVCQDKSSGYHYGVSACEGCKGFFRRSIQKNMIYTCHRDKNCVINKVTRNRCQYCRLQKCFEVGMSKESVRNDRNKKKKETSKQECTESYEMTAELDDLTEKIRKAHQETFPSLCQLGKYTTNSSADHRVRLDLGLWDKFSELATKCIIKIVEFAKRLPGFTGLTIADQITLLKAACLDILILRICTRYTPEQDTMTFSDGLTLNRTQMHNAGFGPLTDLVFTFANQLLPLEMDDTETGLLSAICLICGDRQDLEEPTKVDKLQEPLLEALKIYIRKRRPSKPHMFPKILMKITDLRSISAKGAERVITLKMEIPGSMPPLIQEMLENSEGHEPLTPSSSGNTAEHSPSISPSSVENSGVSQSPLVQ
Text: as §2, §4

RARα [5] = target: T4, RARα (Homo sapiens, UniProt P10276); assay: chimeric receptor transactivation assay, RARα; format: cell-based; details: for EC50: chimeric receptor transactivation, read-out: RAR EC50 α; for % Efficiency α: percentage of maximum compared to standard TTNPB
T4 sequence (P10276 183-417 limits assumed): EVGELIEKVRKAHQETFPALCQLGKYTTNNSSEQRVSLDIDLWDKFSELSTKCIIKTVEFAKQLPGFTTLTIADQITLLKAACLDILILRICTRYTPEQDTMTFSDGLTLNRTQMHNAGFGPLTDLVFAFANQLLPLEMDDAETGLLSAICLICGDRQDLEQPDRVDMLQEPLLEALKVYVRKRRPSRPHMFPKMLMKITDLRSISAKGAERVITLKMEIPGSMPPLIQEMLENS
Procedure: as §1, §2, §3, §4

RARγ [6] = target: T5, RARγ (Homo sapiens, UniProt P13631); assay: chimeric receptor transactivation assay, RARγ; format: cell-based; details: for EC50: chimeric receptor transactivation, read-out: RAR EC50 γ; for % Efficiency γ: percentage of maximum compared to standard TTNPB
T5 construct: % Efficiency γ; other: percentage of maximum compared to standard TTNPB
T5 sequence (P13631 185-454 limits assumed): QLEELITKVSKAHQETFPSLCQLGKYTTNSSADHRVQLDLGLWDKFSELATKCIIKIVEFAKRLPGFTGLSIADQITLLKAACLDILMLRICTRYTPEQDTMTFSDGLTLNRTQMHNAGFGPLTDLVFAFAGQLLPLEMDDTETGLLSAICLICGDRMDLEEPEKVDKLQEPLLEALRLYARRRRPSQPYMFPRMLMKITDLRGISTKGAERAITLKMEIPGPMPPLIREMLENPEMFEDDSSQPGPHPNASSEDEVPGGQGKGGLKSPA
Procedure: as §1, §2, §3, §4

RARγ [7] = target: T6, RARγ (Homo sapiens, UniProt P13631); assay: ligand binding assay, RARγ; details: results expressed in Ki numbers, read-out: RAR Binding γ
T6 sequence (P13631 1-454): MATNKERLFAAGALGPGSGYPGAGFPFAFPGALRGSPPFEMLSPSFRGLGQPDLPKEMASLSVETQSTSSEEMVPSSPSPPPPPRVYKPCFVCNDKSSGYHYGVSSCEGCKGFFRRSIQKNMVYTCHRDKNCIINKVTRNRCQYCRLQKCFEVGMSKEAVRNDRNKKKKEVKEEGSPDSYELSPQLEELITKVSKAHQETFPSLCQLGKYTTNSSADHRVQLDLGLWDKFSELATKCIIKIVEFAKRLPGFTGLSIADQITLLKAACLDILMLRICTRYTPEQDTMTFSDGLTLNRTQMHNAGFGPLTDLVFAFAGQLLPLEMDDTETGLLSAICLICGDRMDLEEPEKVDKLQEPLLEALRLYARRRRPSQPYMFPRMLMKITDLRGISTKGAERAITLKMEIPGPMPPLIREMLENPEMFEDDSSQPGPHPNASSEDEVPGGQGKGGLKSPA
Text: as §2, §4

## Cc1cc2c(cc1C(/C=C\c1ccc(C(=O)O)cc1)=NO)C(C)(C)CCC2(C)C [Compound 9b, Z4-[3-hydroxyimino-3-(3,5,5,8,8-pentamethyl-5,6,7,8-tetrahydro-naphthalen-2-yl)-propenyl]-benzoic acid]
RARγ [1]
  selectivity to the RARγ receptors: less selective

## Cc1cc2c(cc1C(/C=C/c1ccc(C(=O)O)cc1)=NO)C(C)(C)CCC2(C)C [Compound 9a, E-4-[3-Hydroxyimino-3-(3,5,5,8,8-pentamethyl-5.6,7,8-tetrahydro-naphthalen-2-yl)-propenyl]-benzoic acid]
RARγ [1]
  selectivity to the RARγ receptors: less selective

## COc1cc2c(cc1C(/C=C/c1ccc(C(=O)O)cc1)=NO)C(C)(C)CCC2(C)C [Compound 13a, E-4-[3-Hydroxyimino-3-(3-methoxy-5,5,8,8-tetramethyl-5,6,7,8-tetrahydro-naphthalen-2-yl)-propenyl]-benzoic acid]
RARγ [1]
  selectivity to the RARγ receptors: less selective

## CC1(C)CCCc2cc(C(C=Cc3ccc(C(=O)O)cc3)=NO)ccc21 [drawing 17]
RARβ [2]
  EC50: 173 nM
  % Efficiency β: 60%
RARα [3]
  Ki: 12000 nM
RARβ [4]
  Ki: 31000 nM
RARα [5]
  EC50: 12000 nM
  % Efficiency α: 42%
RARγ [6]
  EC50: 204 nM
  % Efficiency γ: 65%
RARγ [7]
  Ki: 27000 nM

## CCCCCCCN1C(=O)CC(C)(C)c2cc(C(/C=C/c3ccc(C(=O)O)cc3)=N\O)ccc21
RARβ [2]
  EC50: 473 nM
  % Efficiency β: 23%
RARα [3]
  Ki: 17000 nM
RARβ [4]
  Ki: 9000 nM
RARα [5]
  EC50: > 1000 nM
RARγ [6]
  EC50: 92 nM
  % Efficiency γ: 35%
RARγ [7]
  Ki: 32 nM

## CC1=CCC(C)(C)c2cc(C(/C=C/c3ccc(C(=O)O)cc3)=N/O)ccc21
RARβ [2]
  EC50: 54 nM
  % Efficiency β: 95%
RARα [3]
  Ki: 3000 nM
RARβ [4]
  Ki: 1300 nM
RARα [5]
  EC50: 7000 nM
  % Efficiency α: 38%
RARγ [6]
  EC50: 0.3 nM
  % Efficiency γ: 91%
RARγ [7]
  Ki: 6 nM

## CC1(C)CCCc2ccc(C(/C=C/c3ccc(C(=O)O)cc3F)=N/O)cc21
RARβ [2]
  EC50: 62 nM
  % Efficiency β: 133%
RARα [3]
  Ki: 5200 nM
RARβ [4]
  Ki: 1200 nM
RARα [5]
  EC50: 118 nM
  % Efficiency α: 39%
RARγ [6]
  EC50: 44 nM
  % Efficiency γ: 97%
RARγ [7]
  Ki: 46 nM

## Cc1cc2c(cc1C(C=Cc1ccc(C(=O)O)cc1)=NO)C(C)(C)CCC2(C)C [drawing 36]
RARβ [2]
  EC50: 3440 nM
  % Efficiency β: 41%
RARα [3]
  Ki: 8000 nM
RARβ [4]
  Ki: 17000 nM
RARα [5]
  EC50: > 1000 nM
RARγ [6]
  EC50: 23 nM
  % Efficiency γ: 48%
RARγ [7]
  Ki: 583 nM

## CC1(C)CCSc2ccc(C(/C=C/c3ccc(C(=O)O)cc3F)=N\O)cc21
RARβ [2]
  EC50: 503 nM
  % Efficiency β: 45%
RARα [3]
  Ki: 10000 nM
RARβ [4]
  Ki: 10000 nM
RARα [5]
  EC50: > 1000 nM
RARγ [6]
  EC50: 21 nM
  % Efficiency γ: 120%
RARγ [7]
  Ki: 19 nM

## CC1(C)CCCc2ccc(C(C=Cc3ccc(C(=O)O)cc3)=NO)cc21 [drawing 14]
RARβ [2]
  EC50: 432 nM
  % Efficiency β: 88%
RARα [3]
  Ki: 22000 nM
RARβ [4]
  Ki: 4700 nM
RARα [5]
  EC50: > 1000 nM
RARγ [6]
  EC50: 3 nM
  % Efficiency γ: 98%
RARγ [7]
  Ki: 16 nM

## Cc1cc2c(cc1C(C=Cc1ccc(C(=O)O)cc1)=NO)C(C)(C)CCC2(C)C [drawing 37]
RARβ [2]
  EC50: 157 nM
  % Efficiency β: 14%
RARα [3]
  Ki: 8000 nM
RARβ [4]
  Ki: 28000 nM
RARα [5]
  EC50: > 1000 nM
RARγ [6]
  EC50: 35 nM
  % Efficiency γ: 67%
RARγ [7]
  Ki: 1850 nM

## CC1(C)CC(C)(C)c2cc(C(C=Cc3ccc(C(=O)O)cc3)=NO)ccc21 [drawing 31]
RARβ [2]
  EC50: 93 nM
  % Efficiency β: 118%
RARα [3]
  Ki: 6000 nM
RARβ [4]
  Ki: 11000 nM
RARα [5]
  EC50: 134 nM
  % Efficiency α: 55%
RARγ [6]
  EC50: 2 nM
  % Efficiency γ: 91%
RARγ [7]
  Ki: 39 nM
